In paper PMC5908160, “Inhibition of sperm motility in male macaques with EP055, a potential non-hormonal male contraceptive” (PLoS ONE, 2018):
Read-outs that look alike come from different tables or passages of the source.

Assay: EP055 plasma and semen levels in rhesus males after i.v. infusion
Assay type: in vivo, Macaca mulatta
From the text: Semen was collected by direct penile stimulation with a P-T Electronics Model 303 PTE 110 Volt AC stimulator equipped with electrocardiogram pad electrodes (10–35 V, 20 ms duration, 18 pulses/sec) as previously described. Semen was collected weekly for 3 weeks to establish baseline parameters for each male. Samples were inspected visually to determine sperm motility and suitability for the study. Sperm motility data from male 28106 presented in S1 Table is representative of pre-treatment samples. Immediately after collection, the seminal plug was separated from the liquefied fraction, placed into a cryovial, flash frozen in liquid nitrogen, and stored at -80C until evaluation for drug levels. Spermatozoa were prepared by centrifugation (7 min, 200 g) of the liquid portion of the ejaculate and resuspending the sperm pellet in TALP-HEPES medium containing 0.3% bovine serum albumin at 37°C. An aliquot was taken to determine concentration using a hemocytometer, percent motility and forward progression as previously described. Baseline semen samples were collected from each male twice during the week prior to treatment. Semen was collected from each male 6–8 hr, 28–30 hr, and 78 hr post-infusion of low dose EP055 (75–80 mg/kg body weight) intravenously. After a one-week recovery period, a baseline semen sample was obtained, and the following week semen samples were collected as described above after an intravenous infusion of high dose EP055 (125–130 mg/kg).
Sample preparation and LC-MS/MS analysis were done by OpAns LLC (Durham, NC). Plasma samples (both rat and macaque) were thawed at room temperature and processed by adding 160 µL of methanol (including 10 µL internal standard) to 25 µL of the sample. Samples were vortexed for 5 minutes, centrifuged at 2684 x g for 5 minutes. 50 µL of supernatant was removed for analysis by HPLC-MS/MS.
Semen or tissue samples were thawed at room temperature. PBS at pH 7.6 was added to each sample at a ratio of 2:1 and sonicated in an ice chilled bath for 5 minutes before homogenization using a Polytron unit (Kinematica AG, Lucerne, Switzerland). An aliquot (25 uL) of each sample homogenate was processed as described for plasma samples.
Prior to infusion of EP055, each male was sedated with ketamine by the surgical staff at ONPRC and transported to the operating room. After positioning in dorsal recumbency, the male was intubated and placed under inhalant (isoflurane) anesthesia. Bilateral intravenous catheters were placed in cephalic veins, one for infusion and one for back-up. A percutaneous arterial line was placed in the right femoral artery for direct blood pressure measurement. Invasive blood pressure, heart rate, SpO2, and respirations were monitored by the surgical staff throughout the procedure. Initially, the low doses of EP055 in 5% DMSO-PBS 7.6 was infused by i.v. at 75-80 mg/kg, using a Medfusion 3500 pump (Smiths Medical, St. Paul, MN), and was started at a low flow rate ([…]). In 3 of 4 males, a 5-10% increase in blood pressure and heart rate were noted within the first 2-3 minutes of infusion of EP055. In these cases, the infusion was temporarily suspended until these parameters subsequently declined to normal. The infusion rate was then doubled to 1.2 ml/kg/min after 5-10 minutes and the final volume of EP055 infusate was administered. Blood pressure and heart rate remained normal throughout the rest of the infusion interval. The total volume of EP055 infusate ranged from 72 ml – 136 ml, depending upon the weight of the animal, and the duration of infusion was 10-13 minutes. Following completion of the infusion, all animals recovered normally. Animals were monitored by clinical veterinary staff immediately, at 1 hr, 2 hr and 6-8 hr post-infusion, and daily for up to 30 days after the final infusion of EP055. […]

SMILES: COC(=O)NNc1nc(Nc2ccc(NC(C)=O)c(O)c2)nc(SCC(=O)O)n1 [EP055]
- concentration (high dose 125–130 mg/kg, 6–8 hr, read-out: Plasma levels): 0.97 ± 0.66 µM
- concentration (high dose 125–130 mg/kg, 6–8 hr, read-out: Semen Levels): 539 µM
- concentration (high dose 125–130 mg/kg, 13–17 days, read-out: Semen Levels): 0.9 ± 0.9 µM
- concentration (low dose 75–80 mg/kg, 14–18 days, read-out: Semen Levels): 0.4 ± 0.3 µM
- concentration at 30 h (rhesus monkey, plasma, iv, high dose 125–130 mg/kg, read-out: Plasma levels): 0.02 ± 0.01 µM
- concentration at 6 h (rhesus monkey, plasma, iv, low dose 75–80 mg/kg, 6 hr after infusion, mean ± SEM 4 animals, read-out: Plasma levels): 0.62 ± 0.3 µM
- concentration at 30 h (rhesus monkey, plasma, iv, low dose 75–80 mg/kg, read-out: Plasma levels): 0.01 µM
- concentration at 30 h (rhesus monkey, semen, iv, high dose 125–130 mg/kg, read-out: Semen Levels): 376 µM
- concentration at 78 h (rhesus monkey, semen, iv, high dose 125–130 mg/kg): 101 ± 30 µM
- concentration at 6 h (rhesus monkey, semen, iv, low dose 75–80 mg/kg, 6 hr, read-out: Semen Levels): 293 µM
- concentration at 30 h (rhesus monkey, semen, iv, low dose 75–80 mg/kg, read-out: Semen Levels): 128 ± 46 µM
- concentration at 78 h (rhesus monkey, semen, iv, low dose 75–80 mg/kg): 61 ± 22 µM
- Kp (rhesus monkey, semen/plasma, iv, high dose 125–130 mg/kg, 6–8 hr, read-out: Ratio of S/P): 556
- Kp at 6 h (rhesus monkey, semen/plasma, iv, low dose 75–80 mg/kg, 6 hr, read-out: Ratio of S/P): 473
- concentration (rhesus, 6 and 30 hours after high-dose infusion, read-out: semen levels): > 300 µM
- detection in plasma (rhesus, 6–8 hours post-infusion): detected
- detection in plasma (rhesus, 28–30 hours post-infusion): barely detectable
- time semen levels detectable post-infusion (rhesus, low and high dose): up to 78 hours
